# Results reported in patent publication US9580409B2, “Modulators of opioid receptors and methods of use thereof” (priority 2011, dated 2017).
# How the values were obtained:
# mu-opioid receptor [1] = biological target: T1, mu-opioid receptor (Homo sapiens, UniProt P35372); experiment: biochemical; details: read-out: GTP Activity
# Target sequence in this assay (P35372 whole entry, species assumed): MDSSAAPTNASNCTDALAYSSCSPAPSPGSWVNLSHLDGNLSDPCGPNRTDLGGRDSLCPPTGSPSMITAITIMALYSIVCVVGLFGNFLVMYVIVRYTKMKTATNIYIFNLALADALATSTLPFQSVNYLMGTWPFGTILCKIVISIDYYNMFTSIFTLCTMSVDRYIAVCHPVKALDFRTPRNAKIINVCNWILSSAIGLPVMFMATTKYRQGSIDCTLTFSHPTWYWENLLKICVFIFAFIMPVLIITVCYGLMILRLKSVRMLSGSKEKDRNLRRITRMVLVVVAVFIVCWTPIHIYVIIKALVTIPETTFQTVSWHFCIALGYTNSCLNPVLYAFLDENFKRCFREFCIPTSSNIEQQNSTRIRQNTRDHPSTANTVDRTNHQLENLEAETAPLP
# mu-opioid receptor [2] = biological target: T1, mu-opioid receptor; experiment: cell-based; details: read-out: BArr Activity
# Target sequence in this assay (P35372 whole entry, species assumed): as above
# Target sequence in this assay (P32121 whole entry partner, species assumed): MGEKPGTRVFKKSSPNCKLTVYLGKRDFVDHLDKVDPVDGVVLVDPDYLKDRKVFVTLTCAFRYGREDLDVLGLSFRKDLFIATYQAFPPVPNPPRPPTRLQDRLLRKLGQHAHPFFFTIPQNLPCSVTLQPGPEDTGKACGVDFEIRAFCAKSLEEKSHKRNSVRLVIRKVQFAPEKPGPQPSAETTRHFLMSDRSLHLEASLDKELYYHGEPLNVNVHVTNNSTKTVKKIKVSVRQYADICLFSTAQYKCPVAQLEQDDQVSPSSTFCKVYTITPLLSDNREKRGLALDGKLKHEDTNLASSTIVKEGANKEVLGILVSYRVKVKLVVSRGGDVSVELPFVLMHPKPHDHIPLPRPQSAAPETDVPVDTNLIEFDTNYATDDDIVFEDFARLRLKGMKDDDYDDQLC
# [3] = […], class symbol combines EC50 and efficacy
Structure (SMILES),EC50 (mu-opioid receptor [1]; class symbols) [nM],EC50 (mu-opioid receptor [2]; class symbols) [µM],EC50 (mu-opioid receptor [1]; [3]) [nM],EC50 (mu-opioid receptor [2]; [3]) [µM]
CCNC1=C(c2nc3ccccc3[nH]2)C(=O)[C@H](CC)N1c1cc(OC)cc(OC)c1 [compound 187],< 100,< 10,,
CCNC1=C(c2nc3ccccc3[nH]2)C(=O)C(CC)N1c1cc(OC)cc(OC)c1 (centres unmarked) [compound 154],100 to 1000,< 10,,
CNC1=C(c2nc3ccccc3[nH]2)C(=O)C(CCNC(C)=O)N1c1cc(OC)cc(OC)c1 (centres unmarked) [compound 254],,,< 100,< 10
COc1cc(OC)cc(N2C(N)=C(c3nc4ccccc4[nH]3)C(=O)[C@H]2C)c1 [compound 82],< 100,< 10,,
CNC1=C(c2nc3ccccc3[nH]2)C(=O)C(CCOC)N1c1cc(OC)cc(OC)c1 (centres unmarked) [compound 218],,,< 100,< 10
CNC1=C(c2nc3ccccc3[nH]2)C(=O)C(CC(C)O)N1c1cc(OC)cc(OC)c1 (centres unmarked) [compound 310],,,< 100,< 10
CC[C@H]1C(=O)C(c2nc3ccccc3[nH]2)=C(NC)N1c1cc(OC)cc(OC)c1 [compound 185],< 100,< 10,,
CNC1=C(c2nc3ccccc3[nH]2)C(=O)[C@@]2(CCOC2)N1c1cc(OC)cc(OC)c1 [compound 214],,,< 100,< 10
CCC(=O)NCC1(C)C(=O)C(c2nc3ccccc3[nH]2)=C(NC)N1c1cc(OC)cc(OC)c1 (centres unmarked) [compound 282],,,< 100,< 10
CCC(=O)NCCC1(C)C(=O)C(c2nc3ccccc3[nH]2)=C(NC)N1c1cc(OC)cc(OC)c1 (centres unmarked) [compound 285],,,< 100,< 10
CCNC1=C(c2nc3ccccc3[nH]2)C(=O)C(C)(C)N1c1cc(OC)cc(OC)c1 [compound 89],< 100,< 10,,
CCC1C(=O)C(c2nc3ccccc3[nH]2)=C(N)N1c1cc(OC)cc(OC)c1 (centres unmarked) [compound 54],100 to 1000,< 10,,
COc1cc(OC)cc(N2C(N)=C(c3nc4ccccc4[nH]3)C(=O)[C@@H]2CCO)c1 [compound 242],,,< 100,< 10
CNC1=C(c2nc3ccccc3[nH]2)C(=O)[C@](C)(CCNC(C)=O)N1c1cc(OC)cc(OC)c1 [compound 303],,,< 100,< 10
COc1cc(OC)cc(N2C(N)=C(c3nc4ccccc4[nH]3)C(=O)C2CCNC(C)=O)c1 (centres unmarked) [compound 233],,,< 100,< 10
CNC1=C(c2nc3ccccc3[nH]2)C(=O)C2(CCOC2)N1c1cc(OC)cc(OC)c1 (centres unmarked) [compound 208],,,< 100,< 10
CCNC1=C(c2nc3ccccc3[nH]2)C(=O)CN1c1cc(OC)cc(OC)c1 [compound 88],100 to 1000,< 10,,
COc1cc(OC)cc(N2C(N)=C(c3nc4ccccc4[nH]3)C(=O)[C@@H]2C(C)C)c1 [compound 98],< 100,< 10,,
COc1cc(OC)cc(N2C(N)=C(c3nc4ccccc4[nH]3)C(=O)C2C(C)C)c1 (centres unmarked) [compound 55],100 to 1000,< 10,,
CNC1=C(c2nc3ccccc3[nH]2)C(=O)C2(CCC2)N1c1cc(OC)cc(OC)c1 [compound 109],< 100,< 10,,
CNC1=C(c2nc3ccccc3[nH]2)C(=O)C(C)(CNC(C)=O)N1c1cc(OC)cc(OC)c1 (centres unmarked) [compound 281],,,< 100,< 10
CNC1=C(c2nc3ccccc3[nH]2)C(=O)[C@]2(CCCOC2)N1c1cc(OC)cc(OC)c1 [compound 305],,,< 100,< 10
CC[C@H]1C(=O)C(c2nc3ccccc3[nH]2)=C(N)N1c1cc(OC)cc(OC)c1 [compound 96],< 100,< 10,,

Structure (SMILES),EC50 (mu-opioid receptor [1]; class symbols) [nM],EC50 (mu-opioid receptor [2]; class symbols) [µM],EC50 (mu-opioid receptor [1]; [3]) [nM],EC50 (mu-opioid receptor [2]; [3]) [µM]
COc1cc(OC)cc(N2C(N)=C(c3nc4ccccc4[nH]3)C(=O)C2C)c1 (centres unmarked) [compound 1],100 to 1000,< 10,,
CNC1=C(c2nc3ccccc3[nH]2)C(=O)[C@@H](C)N1c1cc(OC)cc(OC)c1 [compound 136],< 100,< 10,,
COc1cc(OC)cc(N2C(N)=C(c3nc4ccccc4[nH]3)C(=O)C2CCO)c1 (centres unmarked) [compound 203],,,< 100,< 10
COc1cc(OC)cc(N2C(N)=C(c3nc4ccccc4[nH]3)C(=O)C23CCCC3)c1 [compound 180],100 to 1000,< 10,,
CNC1=C(c2nc3ccccc3[nH]2)C(=O)[C@]2(CCOC2)N1c1cc(OC)cc(OC)c1 [compound 213],,,< 100,< 10
CNC1=C(c2nc3ccccc3[nH]2)C(=O)[C@H](C)N1c1cc(OC)cc(OC)c1 [compound 137],100 to 1000,< 10,,
CCC(=O)NCCC1C(=O)C(c2nc3ccccc3[nH]2)=C(N)N1c1cc(OC)cc(OC)c1 (centres unmarked) [compound 235],,,< 100,< 10
CCC(=O)NCC1C(=O)C(c2nc3ccccc3[nH]2)=C(NC)N1c1cc(OC)cc(OC)c1 (centres unmarked) [compound 288],,,< 100,< 10
CNC1=C(c2nc3ccccc3[nH]2)C(=O)C(CNC(C)=O)N1c1cc(OC)cc(OC)c1 (centres unmarked) [compound 287],,,< 100,< 10
CNC1=C(c2nc3ccccc3[nH]2)C(=O)C(CCO)N1c1cc(OC)cc(OC)c1 (centres unmarked) [compound 215],,,< 100,< 10
CNC1=C(c2nc3ccccc3[nH]2)C(=O)C(CCNC(=O)c2ccccc2)N1c1cc(OC)cc(OC)c1 (centres unmarked) [compound 255],,,< 100,< 10
COc1cc(OC)cc(N2C(NC(C)C)=C(c3nc4ccccc4[nH]3)C(=O)C2(C)C)c1 [compound 90],100 to 1000,< 10,,
COc1cc(OC)cc(N2C(N)=C(c3nc4ccccc4[nH]3)C(=O)C23CCOC3)c1 (centres unmarked) [compound 181],100 to 1000,< 10,,
CNC1=C(c2nc3ccccc3[nH]2)C(=O)[C@@](C)(CNC(C)=O)N1c1cc(OC)cc(OC)c1 [compound 308],,,< 100,< 10
CCC1C(=O)C(c2nc3ccccc3[nH]2)=C(NC)N1c1cc(OC)cc(OC)c1 (centres unmarked) [compound 153],< 100,< 10,,
CNC1=C(c2nc3ccccc3[nH]2)C(=O)[C@](C)(CNC(C)=O)N1c1cc(OC)cc(OC)c1 [compound 307],,,100 to 1000,< 10
COc1cc(OC)cc(N2C(N)=C(c3nc4ccccc4[nH]3)C(=O)C2(C)C)c1 [compound 2],100 to 1000,< 10,,
CNC1=C(c2nc3ccccc3[nH]2)C(=O)C(C)N1c1cc(OC)cc(OC)c1 (centres unmarked) [compound 121],< 100,< 10,,
CNC1=C(c2nc3ccccc3[nH]2)C(=O)C2(CCCOC2)N1c1cc(OC)cc(OC)c1 (centres unmarked) [compound 272],,,< 100,< 10
CNC1=C(c2nc3ccccc3[nH]2)C(=O)C(C)(C)N1c1cc(OC)cc(OC)c1 [compound 79],< 100,< 10,,
CNC1=C(c2nc3ccccc3[nH]2)C(=O)CN1c1cc(OC)cc(OC)c1 [compound 58],100 to 1000,< 10,,
CNC1=C(c2nc3ccccc3[nH]2)C(=O)C2(CCCC2)N1c1cc(OC)cc(OC)c1 [compound 188],< 100,< 10,,
COc1cc(OC)cc(N2C(N)=C(c3nc4ccccc4[nH]3)C(=O)C2CCNC(=O)c2ccccc2)c1 (centres unmarked) [compound 236],,,< 100,< 10
